Biological target: Cdk9/cyclinT1 (Homo sapiens, UniProt P50750)
Assay: Cdk9/cyclinT1 IMAP Protocol (fluorescence polarization kinase assay)
Settings: ATP 6 uM
[1] = Cdk9_cyclinT1_IC50, Table V, generated using one of the two Cdk9/cyclinT1 assays (IMAP or Alpha Screen), not stated which
[2] = Cdk9_cyclinT1_IC50, generated using one of the two Cdk9/cyclinT1 assays (IMAP or Alpha Screen), not specified per value

Chain of Cdk9/cyclinT1 (P50750 whole entry): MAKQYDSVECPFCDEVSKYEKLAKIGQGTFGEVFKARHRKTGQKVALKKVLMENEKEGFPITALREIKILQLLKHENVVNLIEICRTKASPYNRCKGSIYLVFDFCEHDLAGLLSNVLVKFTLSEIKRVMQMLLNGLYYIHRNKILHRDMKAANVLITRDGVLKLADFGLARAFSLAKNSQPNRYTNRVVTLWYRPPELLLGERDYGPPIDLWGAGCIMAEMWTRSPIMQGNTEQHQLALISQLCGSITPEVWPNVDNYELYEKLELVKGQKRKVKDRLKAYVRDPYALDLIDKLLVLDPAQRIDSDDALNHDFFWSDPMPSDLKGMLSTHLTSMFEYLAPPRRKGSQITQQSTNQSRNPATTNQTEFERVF
Chain of Cdk9/cyclinT1 (O60563 whole entry partner): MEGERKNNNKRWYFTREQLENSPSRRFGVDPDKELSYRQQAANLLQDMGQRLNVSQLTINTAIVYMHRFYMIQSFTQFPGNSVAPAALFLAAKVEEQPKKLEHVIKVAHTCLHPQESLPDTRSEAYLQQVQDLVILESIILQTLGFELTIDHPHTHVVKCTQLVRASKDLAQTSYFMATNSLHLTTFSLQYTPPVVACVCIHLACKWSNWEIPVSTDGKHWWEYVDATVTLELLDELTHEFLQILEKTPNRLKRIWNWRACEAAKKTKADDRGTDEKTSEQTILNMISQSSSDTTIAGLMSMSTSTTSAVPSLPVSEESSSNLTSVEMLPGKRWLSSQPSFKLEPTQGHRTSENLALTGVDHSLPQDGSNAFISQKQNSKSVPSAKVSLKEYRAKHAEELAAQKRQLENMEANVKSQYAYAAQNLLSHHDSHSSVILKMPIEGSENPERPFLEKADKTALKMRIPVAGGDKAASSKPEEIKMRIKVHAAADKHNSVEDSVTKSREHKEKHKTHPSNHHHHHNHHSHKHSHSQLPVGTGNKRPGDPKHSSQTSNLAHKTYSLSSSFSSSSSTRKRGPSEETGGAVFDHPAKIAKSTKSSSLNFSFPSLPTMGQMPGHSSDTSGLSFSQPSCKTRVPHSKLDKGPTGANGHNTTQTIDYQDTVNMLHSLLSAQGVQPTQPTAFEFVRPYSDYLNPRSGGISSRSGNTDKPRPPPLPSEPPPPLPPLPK

| IC50 [1] [nM] | IC50 [2] [nM] | SMILES |
| --- | --- | --- |
| 11 | – | CO[C@@H]1CNC[C@H](C(=O)Nc2cc(-c3cccc(NCC4CCOCC4)n3)c(Cl)cn2)C1 (racemic) [Example 184, (3R,5S)-/(3S,5R)-5-Methoxy-piperidine-3-carboxylic acid {5′-chloro-6-[(tetrahydro-pyran-4-ylmethyl)-amino]-[2,4′]bipyridinyl-2′-yl}-amide] |
| – | 531 | O=C(Nc1cc(-c2cncc(F)c2)c(Cl)cn1)[C@@H]1CCCNC1 [Example 308, (R)-Piperidine-3-carboxylic acid (5′-chloro-5-fluoro-[3,4′]bipyridinyl-2′-yl)-amide] |
| 38 | – | CC1(C)C[C@@H](CNc2cccc(-c3cc(NC(=O)[C@H]4CNCCO4)ncc3Cl)n2)CCO1 (single isomer, unassigned) [Example 131] |
| – | < 8 | O=C(Nc1cc(-c2cnc(Cl)c(NCC3CCOCC3)c2)c(Cl)cn1)[C@@H]1CCCNC1 [Example 302, (R)-Piperidine-3-carboxylic acid {6,5′-dichloro-5-[(tetrahydro-pyran-4-ylmethyl)-amino]-[3,4′]bipyridinyl-2′-yl}-amide] |
| 129 | – | O=C(Nc1cc(-c2cccc(NCC3CCOCC3)n2)c(Cl)cn1)[C@@H]1CNC[C@@H](C(F)(F)F)C1 (single isomer, unassigned) [Example 163] |
| 3 | – | C[C@H]1CC[C@H](C(=O)Nc2cc(-c3ccc(F)c(NCC4CCOCC4)n3)c(Cl)cn2)CN1 (single isomer, unassigned) [Example 190] |
| 31 | – | CN1CCCCC(C(=O)Nc2cc(-c3nc(NCC4CCOCC4)ccc3Cl)c(Cl)cn2)C1 (centres unmarked) [Example 200, 1-Methyl-azepane-3-carboxylic acid {3,5′-dichloro-6-[(tetrahydro-pyran-4-ylmethyl)-amino]-[2,4′]bipyridinyl-2′-yl}-amide] |
| 1 | – | O=C(Nc1cc(-c2ccc(F)c(NCC3CCOCC3)n2)c(Cl)cn1)[C@@H]1CCNC1 [Example 143, (R)-Pyrrolidine-3-carboxylic acid {5′-chloro-5-fluoro-6-[(tetrahydro-pyran-4-ylmethyl)-amino]-[2,4′]bipyridinyl-2′-yl}-amide] |
| 2 | – | CO[C@@H]1CNC[C@H](C(=O)Nc2cc(-c3cccc(NCC4CCOCC4)n3)c(Cl)cn2)C1 (single isomer, unassigned) [Example 211] |
| 1 | – | CC1(CNc2nc(-c3cc(NC(=O)[C@@H]4CCCNC4)ncc3Cl)ccc2F)CCOCC1 [Example 208, (R)-Piperidine-3-carboxylic acid {5′-chloro-5-fluoro-6-[(4-methyl-tetrahydro-pyran-4-ylmethyl)-amino]-[2,4′]bipyridinyl-2′-yl}-amide] |
| < 8 | – | CC(C)S(=O)(=O)N1CCC[C@H](C(=O)Nc2cc(-c3nc(NCC4CCOC(C)(C)C4)ccc3Cl)c(Cl)cn2)C1 (stereo partly drawn) [Example 139, (S)-1-(Propane-2-sulfonyl)-piperidine-3-carboxylic acid {3,5′-dichloro-6-[(2,2-dimethyl-tetrahydro-pyran-4-ylmethyl)-amino]-[2,4′]bipyridinyl-2′-yl}-amide] |
| – | 239 | COc1cncc(-c2cc(NC(=O)[C@@H]3CCCNC3)ncc2Cl)c1 [Example 307, (R)-Piperidine-3-carboxylic acid (5′-chloro-5-methoxy-[3,4′]bipyridinyl-2′-yl)-amide] |
| 1 | – | COC[C@@H]1C[C@@H](C(=O)Nc2cc(-c3cccc(NCC4(C)CCOCC4)n3)c(Cl)cn2)CN1 [Example 239, (3R,5S)-5-Methoxymethyl-pyrrolidine-3-carboxylic acid {5′-chloro-6-[(4-methyl-tetrahydro-pyran-4-ylmethyl)-amino]-[2,4′]bipyridinyl-2′-yl}-amide] |
| 1 | – | COC1(CNc2ccc(Cl)c(-c3cc(NC(=O)[C@@H]4CCCNC4)ncc3Cl)n2)CCOCC1 [Example 192, (R)-Piperidine-3-carboxylic acid {3,5′-dichloro-6-[(4-methoxy-tetrahydro-pyran-4-ylmethyl)-amino]-[2,4′]bipyridinyl-2′-yl}-amide] |
| 1 | – | CC1(C)CCC(C(=O)Nc2cc(-c3ccc(F)c(NCC4CCOCC4)n3)c(Cl)cn2)CN1 (centres unmarked) [Example 210, 6,6-Dimethyl-piperidine-3-carboxylic acid {5′-chloro-5-fluoro-6-[(tetrahydro-pyran-4-ylmethyl)-amino]-[2,4′]bipyridinyl-2′-yl}-amide] |

More lines, now with the values behind:

| SMILES | IC50 [1] [nM] | IC50 [2] [nM] |
| --- | --- | --- |
| O=C(Nc1cc(-c2cccc(NCc3cccc(OC(F)F)c3)n2)c(Cl)cn1)[C@@H]1CCCNC1 [Example 55, (R)-Piperidine-3-carboxylic acid [5′-chloro-6-(3-difluoromethoxy-benzylamino)-[2,4′]bipyridinyl-2′-yl]-amide] | < 8 | – |
| COC(=O)N1CCC[C@H](C(=O)Nc2cc(-c3nc(NCC4CCOCC4)ccc3Cl)c(Cl)cn2)C1 [Example 105, (S)-3-{3,5′-Dichloro-6-[(tetrahydro-pyran-4-ylmethyl)-amino]-[2,4′]bipyridinyl-2′-ylcarbamoyl}-piperidine-1-carboxylic acid methyl ester] | < 8 | – |
| O=C(Nc1cc(-c2nc(NCC3CCOCC3)ccc2Cl)c(Cl)cn1)C1CCOCC1 [Example 97, Tetrahydro-pyran-4-carboxylic acid {3,5′-dichloro-6-[(tetrahydro-pyran-4-ylmethyl)-amino]-[2,4′]bipyridinyl-2′-yl}-amide] | 10 | – |
| O=C(Nc1cc(-c2cccc(NC[C@H]3CCCOC3)n2)c(Cl)cn1)[C@@H]1CCCNC1 (single isomer, unassigned) [Example 78] | < 8 | – |
| O=C(Nc1cc(-c2cccc(NCC3CCCCO3)n2)c(Cl)cn1)[C@@H]1CCCNC1 (stereo partly drawn) [Example 34, (R)-Piperidine-3-carboxylic acid {5′-chloro-6-[(tetrahydro-pyran-2-ylmethyl)-amino]-[2,4′]bipyridinyl-2′-yl}-amide] | 10 | – |
| O=C(Nc1cc(-c2cccc(NCCN3CCCC3=O)n2)c(Cl)cn1)[C@@H]1CCCNC1 [Example 32, (R)-Piperidine-3-carboxylic acid {5′-chloro-6-[2-(2-oxo-pyrrolidin-1-yl)-ethylamino]-[2,4′]bipyridinyl-2′-yl}-amide] | 19 | – |
| O=C(Nc1cc(-c2cccc(NCC3CCOCC3)n2)c(Cl)cn1)C1(F)CCCNC1 (single isomer, unassigned) [Example 117] | 230 | – |
| C[C@H](O)CNc1cccc(-c2cc(NC(=O)[C@@H]3CCCNC3)ncc2Cl)n1 [Example 31, (R)-Piperidine-3-carboxylic acid [5′-chloro-6-((S)-2-hydroxy-propylamino)-[2,4′]bipyridinyl-2′-yl]-amide] | 46 | – |
| N[C@@H]1CC[C@@H](C(=O)Nc2cc(-c3cccc(NCC4CCOCC4)n3)c(Cl)cn2)C1 [Example 49, (1R,3R)-3-Amino-cyclopentanecarboxylic acid {5′-chloro-6-[(tetrahydro-pyran-4-ylmethyl)-amino]-[2,4′]bipyridinyl-2′-yl}-amide] | < 8 | – |
| O=C(Nc1cc(-c2cccc(N3CCOCC3)n2)c(Cl)cn1)[C@@H]1CCCNC1 [Example 45, (R)-Piperidine-3-carboxylic acid (5′-chloro-6-morpholin-4-yl-[2,4′]bipyridinyl-2′-yl)-amide] | 154 | – |
| O=C(Nc1cc(-c2nc(NCC3CCOCC3)ccc2Cl)c(Cl)cn1)[C@H]1CNC[C@H]1F [Example 102, (3R,4S)-4-Fluoro-pyrrolidine-3-carboxylic acid {3,5′-dichloro-6-[(tetrahydro-pyran-4-ylmethyl)-amino]-[2,4′]bipyridinyl-2′-yl}-amide] | 9 | – |

From patent US20110130380A1, “Heteroaryl Kinase Inhibitors” (priority 2009, published 2011)
